In the NIST ThermoML archive (doi:10.1016/j.fluid.2006.01.008):
± gives the expanded uncertainty stated by the source.

Experiments:
[1] = xn = mol fraction of the nth substance listed; details: 298.15 K, 101 kPa, Liquid; for viscosity: Capillary tube (Ostwald / Ubbelohde) method; for speed of sound: Sing-around technique in a fixed-path interferometer; for mass density: Vibrating tube method
[2] = refractive index (Na D-line) (dimensionless); xn = mol fraction of the nth substance listed; details: 298.15 K, 101 kPa, Liquid, Standard Abbe refractometry
[3] = refractive index (Na D-line) (dimensionless); details: 298.15 K; 101.33 kPa; Liquid; Standard Abbe refractometry
[4] = 298.15 K, 101.33 kPa, Liquid; for viscosity: Capillary tube (Ostwald / Ubbelohde) method; for speed of sound: Sing-around technique in a fixed-path interferometer; for mass density: Vibrating tube method

## CCCCCCCC[n+]1ccn(C)c1.F[B-](F)(F)F [1-methyl-3-octylimidazolium tetrafluoroborate] + CCO
[1]; x1 = 0.0517
  viscosity: 1.74 ± 0.071 mPa·s
  speed of sound: 1195 ± 1 m/s
  mass density: 849.43 ± 0.11 kg/m3
[1]; x1 = 0.0818
  viscosity: 2.25 ± 0.072 mPa·s
  speed of sound: 1218 ± 1 m/s
  mass density: 878.24 ± 0.11 kg/m3
[1]; x1 = 0.1822
  viscosity: 4.722 ± 0.075 mPa·s
  speed of sound: 1287 ± 1 m/s
  mass density: 946.85 ± 0.13 kg/m3
[1]; x1 = 0.2779
  viscosity: 8.542 ± 0.083 mPa·s
  speed of sound: 1336 ± 1 m/s
  mass density: 988.78 ± 0.13 kg/m3
[1]; x1 = 0.378
  viscosity: 14.99 ± 0.11 mPa·s
  speed of sound: 1376 ± 1 m/s
  mass density: 1019.53 ± 0.14 kg/m3
[1]; x1 = 0.46
  viscosity: 23.42 ± 0.15 mPa·s
  speed of sound: 1398 ± 1 m/s
  mass density: 1038.64 ± 0.15 kg/m3
[1]; x1 = 0.5474
  viscosity: 37.38 ± 0.23 mPa·s
  speed of sound: 1419 ± 1 m/s
  mass density: 1054.97 ± 0.16 kg/m3
[1]; x1 = 0.5537
  viscosity: 38.62 ± 0.23 mPa·s
  speed of sound: 1420 ± 1 m/s
  mass density: 1056.01 ± 0.16 kg/m3
[1]; x1 = 0.5636
  viscosity: 40.81 ± 0.25 mPa·s
  speed of sound: 1422 ± 1 m/s
  mass density: 1057.63 ± 0.17 kg/m3
[1]; x1 = 0.6203
  viscosity: 54.88 ± 0.27 mPa·s
  speed of sound: 1434 ± 1 m/s
  mass density: 1066.22 ± 0.18 kg/m3
[1]; x1 = 0.662
  viscosity: 67.91 ± 0.49 mPa·s
  speed of sound: 1441 ± 2 m/s
  mass density: 1071.9 ± 0.19 kg/m3
[1]; x1 = 0.7749
  viscosity: 120.4 ± 1.9 mPa·s
  speed of sound: 1459 ± 2 m/s
  mass density: 1085.35 ± 0.22 kg/m3
[1]; x1 = 0.9286
  viscosity: 251.9 ± 7.1 mPa·s
  speed of sound: 1481 ± 2 m/s
  mass density: 1099.7 ± 0.28 kg/m3
[2]; x1 = 0.0517
  refractive index: 1.37489 ± 0.00031
[2]; x1 = 0.0818
  refractive index: 1.38179 ± 0.00031
[2]; x1 = 0.1822
  refractive index: 1.39805 ± 0.00032
[2]; x1 = 0.2779
  refractive index: 1.40778 ± 0.00032
[2]; x1 = 0.378
  refractive index: 1.41488 ± 0.00033
[2]; x1 = 0.46
  refractive index: 1.41926 ± 0.00033
[2]; x1 = 0.5474
  refractive index: 1.42304 ± 0.00034
[2]; x1 = 0.5537
  refractive index: 1.42326 ± 0.00034
[2]; x1 = 0.5636
  refractive index: 1.42362 ± 0.00034
[2]; x1 = 0.6203
  refractive index: 1.4256 ± 0.00034
[2]; x1 = 0.662
  refractive index: 1.42683 ± 0.00034
[2]; x1 = 0.7749
  refractive index: 1.42973 ± 0.00035
[2]; x1 = 0.9286
  refractive index: 1.43293 ± 0.00036

## CCCCCCCC[n+]1ccn(C)c1.F[B-](F)(F)F [1-methyl-3-octylimidazolium tetrafluoroborate] + CO
[1]; x1 = 0.0495
  viscosity: 0.981 ± 0.071 mPa·s
  speed of sound: 1188 ± 1 m/s
  mass density: 869.02 ± 0.11 kg/m3
[1]; x1 = 0.0979
  viscosity: 1.622 ± 0.071 mPa·s
  speed of sound: 1243 ± 1 m/s
  mass density: 921.23 ± 0.11 kg/m3
[1]; x1 = 0.1997
  viscosity: 3.85 ± 0.074 mPa·s
  speed of sound: 1323 ± 1 m/s
  mass density: 986.4 ± 0.13 kg/m3
[1]; x1 = 0.2859
  viscosity: 7.131 ± 0.081 mPa·s
  speed of sound: 1366 ± 1 m/s
  mass density: 1018.55 ± 0.13 kg/m3
[1]; x1 = 0.3648
  viscosity: 11.81 ± 0.1 mPa·s
  speed of sound: 1394 ± 1 m/s
  mass density: 1038.89 ± 0.14 kg/m3
[1]; x1 = 0.4461
  viscosity: 18.9 ± 0.13 mPa·s
  speed of sound: 1416 ± 1 m/s
  mass density: 1054.52 ± 0.16 kg/m3
[1]; x1 = 0.4922
  viscosity: 24.16 ± 0.16 mPa·s
  speed of sound: 1426 ± 1 m/s
  mass density: 1061.78 ± 0.17 kg/m3
[1]; x1 = 0.5121
  viscosity: 27.22 ± 0.18 mPa·s
  speed of sound: 1430 ± 1 m/s
  mass density: 1064.62 ± 0.17 kg/m3
[1]; x1 = 0.5709
  viscosity: 38.28 ± 0.24 mPa·s
  speed of sound: 1440 ± 1 m/s
  mass density: 1072.21 ± 0.18 kg/m3
[1]; x1 = 0.5972
  viscosity: 44.63 ± 0.28 mPa·s
  speed of sound: 1445 ± 2 m/s
  mass density: 1075.25 ± 0.18 kg/m3
[1]; x1 = 0.6485
  viscosity: 57.72 ± 0.33 mPa·s
  speed of sound: 1452 ± 2 m/s
  mass density: 1080.67 ± 0.2 kg/m3
[1]; x1 = 0.785
  viscosity: 123.9 ± 2 mPa·s
  speed of sound: 1469 ± 2 m/s
  mass density: 1092.37 ± 0.24 kg/m3
[1]; x1 = 0.9049
  viscosity: 228.6 ± 6.1 mPa·s
  speed of sound: 1482 ± 2 m/s
  mass density: 1100.21 ± 0.28 kg/m3
[2]; x1 = 0.0495
  refractive index: 1.35534 ± 0.00032
[2]; x1 = 0.0979
  refractive index: 1.3733 ± 0.00032
[2]; x1 = 0.1997
  refractive index: 1.39501 ± 0.00032
[2]; x1 = 0.2859
  refractive index: 1.40551 ± 0.00033
[2]; x1 = 0.3648
  refractive index: 1.41222 ± 0.00033
[2]; x1 = 0.4461
  refractive index: 1.41738 ± 0.00033
[2]; x1 = 0.4922
  refractive index: 1.41982 ± 0.00034
[2]; x1 = 0.5121
  refractive index: 1.42076 ± 0.00034
[2]; x1 = 0.5709
  refractive index: 1.42339 ± 0.00034
[2]; x1 = 0.5972
  refractive index: 1.42443 ± 0.00034
[2]; x1 = 0.6485
  refractive index: 1.42629 ± 0.00035
[2]; x1 = 0.785
  refractive index: 1.43029 ± 0.00035
[2]; x1 = 0.9049
  refractive index: 1.43284 ± 0.00036

## CCO [ethanol]
[3]
  refractive index: 1.3592 ± 0.00031
[4]
  viscosity: 1.077 ± 0.031 mPa·s
  speed of sound: 1144 ± 1 m/s
  mass density: 785.22 ± 0.12 kg/m3

## CO [methanol]
[3]
  refractive index: 1.3264 ± 0.00032
[4]
  viscosity: 0.541 ± 0.03 mPa·s
  speed of sound: 1102 ± 1 m/s
  mass density: 786.63 ± 0.13 kg/m3

## CCCO [propan-1-ol]
[3]
  refractive index: 1.38306 ± 0.00032
[4]
  viscosity: 1.928 ± 0.032 mPa·s
  speed of sound: 1207 ± 1 m/s
  mass density: 799.47 ± 0.12 kg/m3

## CC(C)O [propan-2-ol]
[3]
  refractive index: 1.3752 ± 0.00033
[4]
  viscosity: 2.054 ± 0.013 mPa·s
  speed of sound: 1140 ± 1 m/s
  mass density: 780.95 ± 0.15 kg/m3
